In brackets after ≈: the same amount, converted by molar mass. Like-named read-outs stand apart in the source and are kept apart here.
Tests used:
[1] = Solubility pH = 6.8; assay type: physicochemical; conditions: aqueous buffer
[2] = Solubility FASSIF (fasted state simulated intestinal fluid); assay type: physicochemical
[3] = biological target: CYP3A4 (Homo sapiens, UniProt P08684); assay: CYP3A4 (Cytochrome P450 3A4); assay type: in vitro ADME
[4] = biological target: hERG (Homo sapiens, UniProt Q12809); assay: hERG
[5] = LogD; assay type: physicochemical
[6] = PAMPA (parellel artificial membrane permeability assay); assay type: in vitro ADME; parameters: unit not given here
[7] = RLM Cl; assay type: in vitro ADME
[8] = biological target: Dopamine D3 (Homo sapiens, UniProt P35462); assay: Dopamine D3 antagonist; assay type: biochemical
Experimental: (§1) Bioactivity and ADME testing were performed for certain compounds of the invention.

[9] = biological target: Dopamine D2 (Homo sapiens, UniProt P14416); assay: Dopamine D2 antagonist; assay type: biochemical
[10] = biological target: CDK2 (Homo sapiens, UniProt P24941); assay: CDK2 inhibitor; assay type: biochemical
[11] = biological target: T1, PPARγ (Homo sapiens, UniProt P37231); assay: PPARγ antagonist; assay type: biochemical
T1 sequence (P37231 1-505): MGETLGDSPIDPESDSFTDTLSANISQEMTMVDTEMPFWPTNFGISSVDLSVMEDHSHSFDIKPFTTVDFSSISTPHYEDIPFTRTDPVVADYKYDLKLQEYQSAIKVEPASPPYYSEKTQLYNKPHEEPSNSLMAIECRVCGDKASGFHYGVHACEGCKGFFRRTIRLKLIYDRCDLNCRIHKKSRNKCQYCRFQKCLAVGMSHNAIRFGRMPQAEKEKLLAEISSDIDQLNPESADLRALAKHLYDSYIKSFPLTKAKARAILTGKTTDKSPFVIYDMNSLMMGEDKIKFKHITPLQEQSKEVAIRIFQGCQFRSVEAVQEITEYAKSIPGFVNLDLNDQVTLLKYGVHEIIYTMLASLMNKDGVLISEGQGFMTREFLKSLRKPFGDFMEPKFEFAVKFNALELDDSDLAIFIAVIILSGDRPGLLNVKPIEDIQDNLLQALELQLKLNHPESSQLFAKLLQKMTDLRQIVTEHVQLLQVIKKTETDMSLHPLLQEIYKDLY

[12] = biological target: T2, PPARδ (Homo sapiens, UniProt Q03181); assay: PPARδ antagonist; assay type: biochemical
T2 sequence (Q03181 1-441): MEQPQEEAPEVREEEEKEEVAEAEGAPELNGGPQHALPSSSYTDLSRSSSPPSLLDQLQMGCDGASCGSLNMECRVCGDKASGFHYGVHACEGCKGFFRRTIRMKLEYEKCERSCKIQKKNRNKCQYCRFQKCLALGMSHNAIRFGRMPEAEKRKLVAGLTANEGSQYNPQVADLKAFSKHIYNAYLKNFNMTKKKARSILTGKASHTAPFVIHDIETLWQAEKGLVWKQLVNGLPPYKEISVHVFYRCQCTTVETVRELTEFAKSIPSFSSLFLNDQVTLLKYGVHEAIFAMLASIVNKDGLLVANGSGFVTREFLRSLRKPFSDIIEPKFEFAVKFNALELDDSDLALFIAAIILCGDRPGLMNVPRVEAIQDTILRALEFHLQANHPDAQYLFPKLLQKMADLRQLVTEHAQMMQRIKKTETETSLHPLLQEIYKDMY

[13] = biological target: T3, PPARα (Homo sapiens, UniProt Q07869); assay: PPARα inverse agonist; assay type: biochemical
T3 sequence (Q07869 1-468): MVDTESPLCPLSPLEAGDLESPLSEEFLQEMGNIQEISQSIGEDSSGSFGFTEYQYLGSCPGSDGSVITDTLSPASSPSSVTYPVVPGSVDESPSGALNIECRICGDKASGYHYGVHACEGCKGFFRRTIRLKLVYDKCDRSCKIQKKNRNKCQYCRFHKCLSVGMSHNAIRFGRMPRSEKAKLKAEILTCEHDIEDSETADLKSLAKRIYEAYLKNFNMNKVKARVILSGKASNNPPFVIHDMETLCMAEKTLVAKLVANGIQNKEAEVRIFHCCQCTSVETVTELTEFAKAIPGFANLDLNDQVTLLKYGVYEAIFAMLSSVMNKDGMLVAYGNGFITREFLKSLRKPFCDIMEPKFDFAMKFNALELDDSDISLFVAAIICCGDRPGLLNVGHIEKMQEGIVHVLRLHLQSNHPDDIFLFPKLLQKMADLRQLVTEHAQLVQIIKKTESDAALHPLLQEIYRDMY

[14] = biological target: Opioid δ (Homo sapiens, UniProt P41143); assay: Opioid δ antagonist; assay type: biochemical
Experimental: as §1

[15] = biological target: Opioid μ (Homo sapiens, UniProt P35372); assay: Opioid μ antagonist; assay type: biochemical
Experimental: as §1

Sequence of CYP3A4 (P08684 whole entry): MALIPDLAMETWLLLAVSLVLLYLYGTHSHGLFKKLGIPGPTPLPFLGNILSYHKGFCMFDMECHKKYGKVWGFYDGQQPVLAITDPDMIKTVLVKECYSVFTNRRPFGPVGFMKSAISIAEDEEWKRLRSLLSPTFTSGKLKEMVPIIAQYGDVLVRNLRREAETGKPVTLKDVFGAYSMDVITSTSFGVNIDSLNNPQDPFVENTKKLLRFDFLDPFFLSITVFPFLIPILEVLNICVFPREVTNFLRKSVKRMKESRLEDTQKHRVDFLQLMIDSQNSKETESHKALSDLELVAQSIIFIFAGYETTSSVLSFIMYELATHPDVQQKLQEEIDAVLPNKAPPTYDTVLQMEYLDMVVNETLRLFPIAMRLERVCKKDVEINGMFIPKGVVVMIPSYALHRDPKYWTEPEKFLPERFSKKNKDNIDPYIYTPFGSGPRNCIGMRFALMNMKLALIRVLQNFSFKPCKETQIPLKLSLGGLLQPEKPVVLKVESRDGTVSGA
Sequence of hERG (Q12809 whole entry): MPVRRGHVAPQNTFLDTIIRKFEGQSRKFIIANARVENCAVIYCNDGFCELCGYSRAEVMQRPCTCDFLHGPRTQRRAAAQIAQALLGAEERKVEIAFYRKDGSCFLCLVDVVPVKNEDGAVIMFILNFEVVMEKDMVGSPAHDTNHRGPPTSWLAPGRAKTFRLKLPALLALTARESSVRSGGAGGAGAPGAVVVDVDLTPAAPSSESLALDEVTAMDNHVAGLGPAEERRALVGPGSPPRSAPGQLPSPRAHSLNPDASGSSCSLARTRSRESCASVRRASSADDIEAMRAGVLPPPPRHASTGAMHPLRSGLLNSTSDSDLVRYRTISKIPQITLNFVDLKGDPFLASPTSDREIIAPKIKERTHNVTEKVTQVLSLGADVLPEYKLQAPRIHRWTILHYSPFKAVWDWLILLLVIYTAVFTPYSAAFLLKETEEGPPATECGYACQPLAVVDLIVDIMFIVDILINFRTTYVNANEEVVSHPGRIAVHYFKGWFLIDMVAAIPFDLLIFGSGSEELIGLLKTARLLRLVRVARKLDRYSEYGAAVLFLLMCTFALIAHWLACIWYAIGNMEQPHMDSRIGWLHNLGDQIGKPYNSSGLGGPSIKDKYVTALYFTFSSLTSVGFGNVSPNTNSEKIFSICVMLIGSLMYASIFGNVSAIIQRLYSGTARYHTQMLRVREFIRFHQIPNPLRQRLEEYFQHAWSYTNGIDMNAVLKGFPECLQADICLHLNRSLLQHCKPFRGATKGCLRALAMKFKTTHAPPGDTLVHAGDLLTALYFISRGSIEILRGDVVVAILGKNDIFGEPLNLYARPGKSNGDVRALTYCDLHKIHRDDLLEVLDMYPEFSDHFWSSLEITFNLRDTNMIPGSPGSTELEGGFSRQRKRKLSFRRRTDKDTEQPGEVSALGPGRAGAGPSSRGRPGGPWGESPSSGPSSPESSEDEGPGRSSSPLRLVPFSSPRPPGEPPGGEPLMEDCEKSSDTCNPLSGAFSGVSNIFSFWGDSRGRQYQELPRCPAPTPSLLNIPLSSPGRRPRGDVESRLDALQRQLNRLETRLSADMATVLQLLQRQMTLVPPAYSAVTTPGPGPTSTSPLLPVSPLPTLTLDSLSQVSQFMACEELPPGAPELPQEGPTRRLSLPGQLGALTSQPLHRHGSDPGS
Sequence of Opioid δ (P41143 whole entry): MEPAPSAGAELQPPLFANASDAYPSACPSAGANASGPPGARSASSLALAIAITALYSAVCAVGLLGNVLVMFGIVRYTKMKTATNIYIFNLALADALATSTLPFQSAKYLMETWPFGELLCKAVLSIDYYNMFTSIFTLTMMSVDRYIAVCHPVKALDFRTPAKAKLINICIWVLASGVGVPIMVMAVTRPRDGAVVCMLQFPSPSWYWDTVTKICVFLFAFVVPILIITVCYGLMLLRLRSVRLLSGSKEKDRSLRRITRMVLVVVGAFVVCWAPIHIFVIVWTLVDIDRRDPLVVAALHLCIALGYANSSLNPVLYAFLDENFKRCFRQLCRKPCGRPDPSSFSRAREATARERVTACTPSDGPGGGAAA
Sequence of Dopamine D3 (P35462 whole entry): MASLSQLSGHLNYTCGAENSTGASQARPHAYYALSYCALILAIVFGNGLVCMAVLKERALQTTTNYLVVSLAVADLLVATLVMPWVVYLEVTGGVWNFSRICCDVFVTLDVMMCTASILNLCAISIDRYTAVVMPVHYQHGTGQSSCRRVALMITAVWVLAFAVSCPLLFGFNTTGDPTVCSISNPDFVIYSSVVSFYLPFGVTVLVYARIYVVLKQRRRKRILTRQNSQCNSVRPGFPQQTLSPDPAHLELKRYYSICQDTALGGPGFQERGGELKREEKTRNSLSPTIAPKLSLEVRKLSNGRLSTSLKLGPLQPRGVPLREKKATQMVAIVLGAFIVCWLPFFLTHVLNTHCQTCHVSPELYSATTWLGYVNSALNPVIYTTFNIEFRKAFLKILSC
Sequence of Opioid μ (P35372 whole entry): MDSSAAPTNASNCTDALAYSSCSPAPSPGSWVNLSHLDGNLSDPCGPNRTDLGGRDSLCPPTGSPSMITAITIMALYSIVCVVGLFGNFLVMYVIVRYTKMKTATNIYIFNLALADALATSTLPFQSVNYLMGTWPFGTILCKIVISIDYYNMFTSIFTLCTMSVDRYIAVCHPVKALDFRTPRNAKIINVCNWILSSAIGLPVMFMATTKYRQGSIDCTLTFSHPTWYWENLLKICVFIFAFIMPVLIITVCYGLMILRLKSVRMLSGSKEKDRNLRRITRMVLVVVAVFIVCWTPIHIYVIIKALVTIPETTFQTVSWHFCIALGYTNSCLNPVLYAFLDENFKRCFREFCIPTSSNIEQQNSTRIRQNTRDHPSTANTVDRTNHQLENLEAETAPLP
Sequence of Dopamine D2 (P14416 whole entry): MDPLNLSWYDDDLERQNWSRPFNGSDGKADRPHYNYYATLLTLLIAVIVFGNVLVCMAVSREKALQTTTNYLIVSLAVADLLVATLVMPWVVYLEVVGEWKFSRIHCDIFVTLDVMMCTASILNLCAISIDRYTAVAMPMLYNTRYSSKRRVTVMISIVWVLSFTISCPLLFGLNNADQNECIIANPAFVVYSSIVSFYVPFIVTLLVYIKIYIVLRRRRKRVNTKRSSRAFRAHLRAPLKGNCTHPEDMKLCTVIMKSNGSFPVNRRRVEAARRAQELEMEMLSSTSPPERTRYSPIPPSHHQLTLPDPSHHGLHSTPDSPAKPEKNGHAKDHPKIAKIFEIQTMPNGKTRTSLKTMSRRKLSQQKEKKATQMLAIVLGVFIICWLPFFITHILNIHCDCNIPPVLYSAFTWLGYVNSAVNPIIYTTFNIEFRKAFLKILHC

| SMILES | solubility [1] [µM] | solubility [2] [µM] | IC50 [3] [µM] | IC50 [4] [µM] | logD [5] | PAMPA [6] | RLM Cl [7] [mL/min/kg] | IC50 [8] [µM] | IC50 [9] [µM] | IC50 [10] [µM] | IC50 [11] [µM] | IC50 [12] [µM] | IC50 [13] [µM] | IC50 ([12]; antagonist, read-out: PPARδ antagonist IC50) [µM] | IC50 [14] [µM] | IC50 [15] [µM] |
| --- | --- | --- | --- | --- | --- | --- | --- | --- | --- | --- | --- | --- | --- | --- | --- | --- |
| O=C(O)Cc1ccc(-c2ccccc2)cc1 | 890 (≈ 189 µg/mL) | 840 (≈ 178 µg/mL) |  |  |  |  |  |  |  |  |  |  |  |  |  |  |
| O=C(O)Cc1ccc(B2C=CC=CN2)cc1 | > 1000 | 790 (≈ 168 µg/mL) | > 20 | > 30 |  |  |  |  |  |  |  |  |  |  |  |  |
| O=C(NC1CCN(Cc2ccccc2)C1)c1ccc(-c2ccccc2)cc1 (stereo not shown) | 13 (≈ 4.63 µg/mL) | 27 (≈ 9.62 µg/mL) | > 20 | 0.32 | 4.4 | −3.6 | 43.7 |  |  |  |  |  |  |  |  |  |
| O=C(NC1CCN(Cc2ccccc2)C1)c1ccc(B2C=CC=CN2)cc1 (stereo not shown) | > 30 | 597 (≈ 213 µg/mL) | > 20 | 1.4 | 4.1 | −4.8 | 48.5 |  |  |  |  |  |  |  |  |  |
| COc1ccccc1N1CCN(CCCCNC(=O)c2ccc(-c3ccccc3)cc2)CC1 | < 5 | 21 (≈ 9.32 µg/mL) | > 20 | 0.042 | 4.2 | −3.9 | 51.4 | 0.003 |  |  |  |  |  |  |  |  |
| COc1ccccc1N1CCN(CCCCNC(=O)c2ccc(B3C=CC=CN3)cc2)CC1 | 46 (≈ 20.4 µg/mL) | 220 (≈ 97.8 µg/mL) | 11 | 0.17 | 4.1 | −4.3 | >53 | 0.004 | 0.52 |  |  |  |  |  |  |  |
| COc1ccc2[nH]cc(CCNC(=O)c3ccc(-c4ccccc4)cc3)c2c1 |  |  | > 20 | 11 | > 5 | −4.1 | 46.4 |  |  |  |  |  |  |  |  |  |
| COc1ccc2[nH]cc(CCNC(=O)c3ccc(B4C=CC=CN4)cc3)c2c1 |  |  | 17 | 7.9 | 5 | −4.2 | 51.3 |  |  |  |  |  |  |  |  |  |
| O=C(NCc1ccncc1)c1ccc(B2C=CC=CN2)cc1 | 88 (≈ 25.4 µg/mL) | 130 (≈ 37.6 µg/mL) | 8.6 | > 30 | 3.2 | −4.6 | 39.6 |  |  |  |  |  |  |  |  |  |
| CN(CCc1c[nH]c2ccccc12)C(=O)c1ccc(-c2ccccc2)cc1 | < 5 | < 5 | > 20 | > 30 | > 5 | −4.5 | 48.6 |  |  |  |  |  |  |  |  |  |
| CN(CCc1c[nH]c2ccccc12)C(=O)c1ccc(B2C=CC=CN2)cc1 | < 5 | 13 (≈ 4.62 µg/mL) | > 20 | 5.8 | 4.6 | −4.2 | 52.4 |  |  |  |  |  |  |  |  |  |
| Cl.O=C(Cc1ccc(-c2ccccc2)cc1)Nc1cc(C2CC2)n[nH]1 | < 4 | 13 | > 20 | > 30 | 4.2 | −3.9 | 50 |  |  |  |  |  |  |  |  |  |
| O=C(Cc1ccc(B2C=CC=CN2)cc1)Nc1cc(C2CC2)[nH]n1 |  |  | 7.8 | > 30 |  |  |  |  |  | 0.24 |  |  |  |  |  |  |
| O=C(NCCS(=O)(=O)c1ccc(C(F)(F)F)cn1)c1ccc(-c2ccccc2)cc1 | < 4 | < 4 | > 20 | > 20 | 3.5 | −4.2 | 38.7 |  |  |  | 1.4 | 3.9 |  |  |  |  |
| O=C(NCCS(=O)(=O)c1ccc(C(F)(F)F)cn1)c1ccc(B2C=CCCN2)cc1 | < 4 | 6 (≈ 2.62 µg/mL) | > 20 | > 30 | 3.5 | −4.5 | >53 |  |  |  | 4.8 |  | 0.052 | 1.4 |  |  |
| CC(C)[C@@H](CN1CCN(c2cccc(O)c2)[C@@H](C)C1)NC(=O)c1ccc(-c2ccccc2)cc1 | 50 (≈ 22.9 µg/mL) | 349 (≈ 160 µg/mL) | > 20 | > 30 | 5.2 | −5.7 | >53 |  |  |  |  |  |  |  | > 30 | 7.4 |
| CC(C)[C@@H](CN1CCN(c2cccc(O)c2)[C@@H](C)C1)NC(=O)c1ccc(B2C=CCCN2)cc1 | 26 (≈ 12 µg/mL) | 119 (≈ 54.8 µg/mL) | 16 | 9.1 | 4.9 | −5.0 | >53 |  |  |  |  |  |  |  | > 14 | 1 |

— US20170081347A1, “FUNCTIONALIZED AZABORINE COMPOUNDS AND AZABORINE-CONTAINING BIARYLCARBOXAMIDES, AND COMPOSITIONS AND METHODS THEREOF” (The Trustees of Boston College, priority 2014, published 2017)
